Reference: patent US20140024663A1, “ATB(0,+) AMINO ACID TRANSPORTER AS A DRUG TARGET FOR TREATMENT OF ESTROGEN RECEPTOR-POSITIVE BREAST CANCER” (GEORGIA HEALTH SCIENCES UNIVERSITY RESEARCH INSTITUTE, INC., priority 2012, published 2014)

Experiments:
Assay type in all cases: cell-based, human
[1] = test system: BT474 cells; assay: SLC6A14 and ER mRNA by RT-PCR after estradiol/antiestrogen treatment; conditions: 24 h
Method: (§1) FIGS. 2A-2C. Regulation of SLC6A14 expression by estrogen/ER. In FIG. 2A, ZR75.1 and BT474 cells were cultured for 5-6 passages in control medium (10% fetal bovine serum with phenol red) and phenol red-free medium (10% or 5% charcoal-stripped fetal bovine serum), and then the levels of ERa mRNA and SLC6A14 mRNA were determined by RT-PCR (P1, P2, P3, P4, P5, and P6 refer to passage numbers). In FIG. 2B, BT474 cells were treated with estradiol (10 nM) in the presence or absence of antiestrogens (1 μM) for 24 h, and then used for RT-PCR analysis of SLC6A14 mRNA and ERa mRNA (E2, estradiol; TAM, tamoxifen; 4-OH TAM, 4-hydroxytamoxifen; ICI 182780, FULVESTRANT™). […] Following the treatment, the reporter activity was measured. […]
(§2) Analysis of SLC6A14 as an estrogen/ER target. The influence of estrogen on SLC6A14 expression was assessed in ER-positive breast cancer cells (ZR75.1 and BT474) by culturing them for several passages in the absence of phenol red, and then monitoring the levels of SLC6A14 mRNA. […] Luciferase activity was measured in cell lysates using Luciferase Assay Reagent (Promega). β-galactosidase activity in the same cell lysates was used for normalization of the promoter activity for differences in transfection efficiency.

[2] = test system: SLC6A14 promoter in BT474 cells; assay: SLC6A14-promoter luciferase reporter assay; conditions: BT474, estradiol 10 nM, normalized with β-galactosidase activity
Method: as §1, §2

[3] = test system: MCF7 cells; assay: SLC6A14 mRNA by RT-PCR in phenol red-free medium with or without estradiol; conditions: estradiol 10 nM, 24 h, versus absence of estradiol
Method: FIG. 11. Estrogen-dependent suppression of the efficacy of α-MT to induce ASNS and CHOP expression in MCF7 cells. MCF7 cells were cultured in a phenol red-free medium in the absence or presence of estradiol (E2, 10 nM) for 24 h and then treated without or with α-MT (2.5 mM, 24 h). The cells were then used for analysis of SLC6A14, asparagine synthetase (ASNS), and CHOP mRNA levels by RT-PCR. Hypoxanthine/guanine phosphoribosyltransferase-1 (HPRT1) mRNA levels were used as an internal control.
RT-PCR. Total RNA was isolated using TRIZOL™ (Invitrogen). 2 μg of RNA was reverse transcribed using the GeneAmp PCR System (Applied Biosystems, Branchburg, N.J.). PCR reaction was performed under optimal conditions specific for each of the primer pairs. GAPDH (glyceraldehyde-3-phosphate dehydrogenase) or HPRT1 (hypoxanthine/guanine phosphoribosyl transferase-1) were used as internal controls. PCR products were size-fractionated on agarose gel, stained with ethidium bromide and imaged using Alpha Imager (Santa Clara, Calif.). Densitometry was performed on PCR bands and normalized to the internal control. Normalized values were used to compare mRNA levels of target genes. Primers used for PCR were as follows.

SMILES: C[C@]12CC[C@@H]3c4ccc(O)cc4CC[C@H]3[C@@H]1CC[C@@H]2O [estradiol]
- SLC6A14 mRNA levels ([1]; BT474, estradiol 10 nM): increased
- expression of ER ([1]; BT474, estradiol): did not have any noticeable effect
- enhancement of SLC6A14-promoter (luciferase) activity [2]: 6 fold
- expression of SLC6A14 [3]: higher
